Measured values published in US7262269B2, “Method for screening combinational bead library; ligands for cancer cells” (The Regents of University of California, priority 2001, dated 2007).

tested on: epithelial ovarian cancer cell line SKOV-3; test: cell-growth-on-bead assay, SKOV-3; format: cell-based, human; details: Example 3, cX2GX4GX6X7c library, 24 to 72 hours
Protocol: (§1) The ratio of cells to beads is preferably about 10:1, but can range from about 1:1 to 100:1. The suspension of cells 10 and beads 12 is mixed gently for sufficient time to assure contact of beads 12 with suspended cells 10. The culture plates are incubated in a tissue culture incubator at about 4° C. to about 37° C., preferably 37° C., for a period of about 24 to about 72 hours. The suspension of cells 10 and beads 12 may be kept still or mixed, either continuously or intermittently, during the incubation period.
(§2) After the incubation period, beads 12 are observed under a dissecting microscope. […] These beads 14 (referred to as “positive” beads) are removed from the culture plates. A tetrazolium dye that stains live, but not dead, cells can be used to facilitate the identification and removal of the positive beads. If a dye is used, all of the beads are removed after the incubation period and resuspended in fresh medium in new culture plates. The dye is added. The plates are then incubated in a tissue culture incubator at 25° C. to 37° C. for about one to four hours. Live cells 10 convert the dye to a colored metabolite, which results in beads 14 with attached cells appearing colored, allowing them to be easily distinguished from beads 16 without attached cells, which appear colorless, as shown in FIG. 1E. Other dyes that stain live cells can also be used. After positive beads 14 are removed from the plates, attached cells 10 are separated from the beads. This can be done with the addition of a chaotrophic agent, such as 8 M guanidine hydrochloride, or a protease, such as trypsin.
(§3) About 150,000 peptide beads were mixed with approximately one million suspended cells in 15 ml of culture medium and distributed into six 3-cm culture plates. The culture plates were agitated gently at about 100 rpm for about 10 minutes. The culture plates were then incubated in a tissue culture incubator at 37° C. for about 24 hours to about 72 hours.
(§4) A dissecting microscope was used to examine the beads at about 24, 48, and 72 hours. After about 24 to 72 hours, beads with a monolayer of cells were observed.
(§5) At the end of the incubation period, all of the beads were removed and resuspended in fresh medium in a new culture plate. An MTT ([3-(4,5-dimethylthiazol-2-yl)-2,5-diphenyl] tetrazolium bromide) (Sigma, St. Louis, Mo.) dye solution was added to each culture plate to a final concentration of 0.5 mg/ml. The plates were incubated in a tissue culture incubator at 37° C. for about two hours to allow the purple color to develop. Each purple-colored peptide bead was isolated and removed. The attached cells were separated from the beads with 8 M guanidine hydrochloride.
(§6) The amino acid sequence of each isolated peptide bead was determined using an automated Procise 494 protein sequencer (Applied Biosystems, Foster City, Calif.). Several consensus peptide sequences were determined, one of which was cNGRGEQc. This peptide was resynthesized on beads, which were then rescreened with the A549 cells using the assay of the invention.
(§7) The method as described in Example 1 was performed, except that a different combinatorial library was used and different types of epithelial cancer cells were used. A one-bead-one-compound combinatorial peptide library was prepared according to the method described in Example 1, with the following formula: cX2GX4GX6X7c, where “c” is D-cysteine; “G” is glycine; X2 is D,d,N, n, S,Q,q,T, HoSer, Cit, E, e, HoCit, Hyp, Aad, Lys(Ac), A, 4-Pal, D-3-Pal, Pra, D-Pra, Y, Aib, M, Phe(4-CN), Tyr(3-NO2), Tyr(Me), Phe(4-NO2), Bug, Ach, Tyr(3,5-I), Aic, Phe(3-Cl), Chg, Bta, Bpa, Phe(3,4-Cl), Hyp(Bzl), or Cha; and X4, X6 and X7 are N, S, Q, T, HoSer, Cit, HoCit, Hyp, H, A, Pal, D-3-Pal, Pra, R, Y, Aib, Abu, P, M, V, Nva, Tyr(3-NO2), W, Phg, Phe(4-NO2), Bug, I, Ach, L, Nle, Phe(4-Me), Aic, Phe(3-Cl), HoPhe, Chg, Bta, Bpa, 2-Nal, 1-Nal, Phe(3,4-Cl), Hyp(Bzl), or Cha. […]

Row | Substance | identified as ligand (positive bead with monolayer of cells)
1 | c-d-G-(4-Pal)-G-Tyr(3-NO2)-Cha-c | identified
2 | c-d-G-Cha-G-1-T-c | identified
3 | c-d-G-Cit-G-Hyp(Bzl)-M-c | identified
4 | c-d-G-Nva-G-Phe (4-CN)-F-c | identified
5 | c-d-G-Phe(4-Me)-G-T-Pra-c | identified
6 | c-d-G-Phg-G-P-F-c | identified
7 | c-d-G-Tyr(3NO2)-G-Pra-G-c | identified
8 | cdGIGPQc | identified
9 | cdGLGFTc | identified

same assay, conditions: Example 4, cX2GX4GX6X7c library, peptide concentration on bead surface 20% of Example 3

Row | Substance | identified as ligand (positive bead with monolayer of cells)
10 | c-d-G-A-G-Bta-L-c | identified
11 | c-d-G-L-G-S-Bpa-c | identified
12 | c-d-G-Nle-G-Phe(3-Cl)-S-c | identified
13 | c-d-G-Tyr(3-NO2)-G-Nle-H-c | identified
14 | c-d-G-Tyr(3-NO2)-G-Phg-M-c | identified

tested on: ovarian cancer cell line CaOV3; test: cell-growth-on-bead assay, CaOV3; format: cell-based, human; details: Example 4, cX2GX4GX6X7c library, peptide concentration on bead surface 20% of Example 3
Protocol: as §1, §2, §3, §4, §5, §6
The method as described in Example 1 was performed, except that the combinatorial peptide library was screened with a different type of epithelial cancer cells, the ovarian cancer cell line CaOV3 (American Type Culture Collection).
As described in Example 1, after culturing for about 24 to 72 hours, beads with a monolayer of cells were observed. These positive beads were isolated and the amino acid sequence of each positive bead was determined, as described in Example 1.
The method as described in Example 1 was performed, except that a different combinatorial library was used and different types of epithelial cancer cells were used. The peptide library of Example 3 was used, except that the concentration of peptides on the surface of each bead was 20% of that used in Example 3, resulting in an increase in screening stringency. […]

Row | Substance | identified as ligand (positive bead with monolayer of cells)
15 | c-D-G-Cha-G-Hyp-N-c | identified
16 | c-d-G-Chg-G-Hyp-N-c | identified
17 | c-d-G-M-G-HoSer-Nle-c | identified
18 | c-d-G-M-G-S-Cha-c | identified
19 | c-d-G-Tyr(3-NO2)-G-F-L-c | identified
20 | c-d-G-Tyr(3-NO2)-G-i-Pra-c | identified
21 | cdGMGSAc | identified

tested on: epithelial cells; test: secondary library screening and structure/activity relationship studies; format: cell-based; details: not given
Source text: Through additional secondary library screening and structure/activity relationship studies, other ligands for epithelial cells have been identified, including the following: • c-D-G-Chg-G-A-N-c; c-N-G-Bpa-G-Q-M-c; c-N-G-Acdt-G-D-Bpa-c; cNGTGDGc; • cNGQGAGc; cNGYGSFc; c-N-G-Nle-G-Y-G-c; cNGMGAYc; cNGQGEQc; • cRGNGTDc; cNGQGPLc; cNGLGRSc; cDGMGSNc; cNGLGQYc; and • cNGYGTTc.

Row | Substance | identified as ligand for epithelial cells
22 | c-D-G-Chg-G-A-N-c | identified
23 | c-N-G-Acdt-G-D-Bpa-c | identified
24 | c-N-G-Bpa-G-Q-M-c | identified
25 | c-N-G-Nle-G-Y-G-c | identified
26 | cDGMGSNc | identified
27 | cNGLGQYc | identified
28 | cNGLGRSc | identified
29 | cNGMGAYc | identified
30 | cNGQGAGc | identified
31 | cNGQGEQc | identified
32 | cNGQGPLc | identified
33 | cNGTGDGc | identified
34 | cNGYGSFc | identified
35 | cNGYGTTc | identified
36 | cRGNGTDc | identified

tested on: epithelial ovarian cancer cell line ES-2; test: cell-growth-on-bead assay, ES-2; format: cell-based, human; details: Example 3, cX2GX4GX6X7c library, 24 to 72 hours
Protocol: as §1, §2, §3, §4, §5, §6, §7

Row | Substance | identified as ligand (positive bead with monolayer of cells)
37 | c-d-G-Cha-G-HoCit-S-c | identified
38 | c-d-G-L-G-HoSer-T-c | identified
39 | c-d-G-Phe(3-Cl)-G-Q-F-c | identified
40 | c-d-G-Phe(4Me)-G-P-Cha-c | identified
41 | c-d-G-Tyr(Me)-G-T-M-c | identified
42 | c-d-G-V-G-Hyp-HoSer-c | identified
43 | cdGLGYYc | identified

same assay, conditions: Example 4, cX2GX4GX6X7c library, peptide concentration on bead surface 20% of Example 3

Row | Substance | identified as ligand (positive bead with monolayer of cells)
44 | c-d-G-Aib-G-Aib-N-c | identified
45 | c-d-G-Aib-G-P-S-c | identified
46 | c-d-G-Bta-G-Hyp-Y-c | identified
47 | c-d-G-Cha-G-Bta-Q-c | identified
48 | c-d-G-Cha-G-HoCit-Q-c | identified
49 | c-d-G-HoCit-G-P-Q-c | identified
50 | c-d-G-Phe(4-Me)-G-Aib-S-c | identified
51 | cdGLGWGc | identified
